Measured values taken from article PMC11997881, “Comprehensive Characterization of Bruton’s Tyrosine Kinase Inhibitor Specificity, Potency, and Biological Effects: Insights into Covalent and Noncovalent Mechanistic Signatures” (ACS Pharmacology & Translational Science, 2025).
Read-outs that look alike come from different tables or passages of the source.

Key:
[1] = molecular target: T1, BTK (Homo sapiens, UniProt Q06187); assay: scanMAX binding POC, BTK; details: 1 μM; zero POC = competition comparable to positive control
T1 construct: host or cells: transiently transfected HEK293 cells
Description: (§1) Comprehensive Characterization of Bruton’s Tyrosine Kinase Inhibitor Specificity, Potency, and
(§2) Biological Effects: Insights into Covalent and Non-Covalent Mechanistic Signatures
(§3) Antonia C. Darragh1, Andrew M. Hanna1, Justin H. Lipner2, Alastair J. King2, Nicole B. Servant1, Mirza Jahic1*
(§4) *To whom correspondence should be addressed: Mirza Jahic, e-mail address: Mirza.Jahic@discovery.eurofinsus.com
(§5) Supporting Table S1. Comparison of BTK inhibitor specificity to TEC family members. TEC family members are
(§6) Burton’s tyrosine kinase (BTK), tyrosine kinase expressed in hepatocellular carcinoma (TEC), bone marrow-
(§7) expressed kinase (BMX/ETK), and T cell-expressed kinase (TXK/RLK), and interleukin-2-inducible T cell kinase
(§8) A zero POC signifies that the compound

[2] = molecular target: T2, wild-type BTK (Homo sapiens, UniProt Q06187); assay: KdELECT competition binding, wild-type BTK
T2 construct: made in house; host or cells: transiently transfected HEK293 cells (unpurified extract)
Procedure: Using Eurofins Discovery’s KdELECT Kinase Assay Panel (San Diego, CA), we measured the ATP-independent in vitro binding affinity of the aforementioned BTK inhibitors to wild-type BTK.
(§9) Protein extracts were harvested in M-PER extraction buffer (Pierce Biotechnology, Rockford, IL) supplemented with 150 mM NaCl, 10 mM Dithiothreitol (DTT), Protease Inhibitor Cocktail Complete (Roche Diagnostics GmbH, Mannheim, Germany), and Phosphatase Inhibitor Cocktail Set II (Merck KGaA, Darmstadt, Germany) following the manufacturer’s guidelines. The fusion protein was labeled with a DNA tag containing the NFκB binding site fused to an amplicon for qPCR readout, which was added directly to the expression extract.
(§10) Kds were calculated using a standard dose–response curve fitting of the data using the Hill equation: Response = Background + (Signal – Background)/(1 + (Kd ^Hill Slope/Dose^Hill Slope). The Hill Slope was set to −1. A nonlinear least-square fit using the Levenberg–Marquardt algorithm was employed for curve fitting.

[3] = molecular target: T3, BTK C481S (Homo sapiens, UniProt Q06187, C481S); assay: KdELECT competition binding, mutant BTK C481S
T3 construct: made in house; host or cells: transiently transfected HEK293 cells (unpurified extract)
Procedure: as §9, §10

[4] = molecular target: T4, TEC (Homo sapiens, UniProt P42680); assay: scanMAX binding POC, TEC; details: 1 μM
T4 sequence (P42680 1-631): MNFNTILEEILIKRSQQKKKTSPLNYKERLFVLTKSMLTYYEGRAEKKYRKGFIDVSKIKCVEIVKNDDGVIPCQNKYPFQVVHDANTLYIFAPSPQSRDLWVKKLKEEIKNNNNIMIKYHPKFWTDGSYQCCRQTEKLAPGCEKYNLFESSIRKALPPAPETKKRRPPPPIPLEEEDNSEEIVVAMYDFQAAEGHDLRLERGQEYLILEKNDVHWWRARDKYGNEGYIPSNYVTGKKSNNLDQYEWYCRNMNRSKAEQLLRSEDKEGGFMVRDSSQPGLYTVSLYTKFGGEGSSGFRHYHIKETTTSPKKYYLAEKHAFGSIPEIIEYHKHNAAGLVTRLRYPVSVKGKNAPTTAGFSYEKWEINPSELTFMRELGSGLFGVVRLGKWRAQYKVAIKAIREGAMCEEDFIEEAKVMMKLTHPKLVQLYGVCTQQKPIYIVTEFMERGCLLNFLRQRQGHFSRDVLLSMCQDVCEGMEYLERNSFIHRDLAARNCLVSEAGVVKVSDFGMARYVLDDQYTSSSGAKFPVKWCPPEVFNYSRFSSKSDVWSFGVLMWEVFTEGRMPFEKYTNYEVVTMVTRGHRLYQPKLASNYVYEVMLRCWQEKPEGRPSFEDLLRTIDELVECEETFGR
Description: as §1, §2, §3, §4, §5, §6, §7, §8

[5] = test system: 468 kinases/kinase domains; details: scanMAX at 1 μM; for selectivity: category by number of off-targets
Procedure: The compounds were diluted directly into the assays such that the final concentration of DMSO was 0.9%. No enzyme purification steps were performed on the protein extracts before adding them to the reaction mixture, and the protein extracts were diluted 10,000-fold in the final reaction mixture (the final DNA-tagged enzyme concentration was less than 0.1 nM). Binding assay mixtures were incubated at 25 °C with shaking for 1 h. […] The concentration of wild-type or mutant BTK in the eluates was then determined using quantitative PCR.

[6] = molecular target: JNK1 (MAPK8) (Homo sapiens, UniProt P45983); assay: scanMAX binding POC, JNK1; details: 1 μM
Procedure: The compounds were diluted directly into the assays such that the final concentration of DMSO was 0.9%. No enzyme purification steps were performed on the protein extracts before adding them to the reaction mixture, and the protein extracts were diluted 10,000-fold in the final reaction mixture (the final DNA-tagged enzyme concentration was less than 0.1 nM). Binding assay mixtures were incubated at 25 °C with shaking for 1 h. […] The concentration of wild-type or mutant BTK in the eluates was then determined using quantitative PCR. […] Each assay’s affinity ligand concentration on the magnetic beads has been optimized to ensure that the true thermodynamic Kd values for competitor molecules were measured, as described in detail previously99.
Comparison of BTK inhibitor specificity to c-Jun N-terminal kinases (JNK1-3/MAPKP8-10).
a The percent of control (POC) is the percent of kinase that was competed off its control ligand relative to the positive and negative controls at the screening concentration56. A zero POC signifies that the compound

[7] = molecular target: T5, BMX (Homo sapiens, UniProt P51813); assay: scanMAX binding POC, BMX; details: 1 μM
T5 sequence (P51813 1-675): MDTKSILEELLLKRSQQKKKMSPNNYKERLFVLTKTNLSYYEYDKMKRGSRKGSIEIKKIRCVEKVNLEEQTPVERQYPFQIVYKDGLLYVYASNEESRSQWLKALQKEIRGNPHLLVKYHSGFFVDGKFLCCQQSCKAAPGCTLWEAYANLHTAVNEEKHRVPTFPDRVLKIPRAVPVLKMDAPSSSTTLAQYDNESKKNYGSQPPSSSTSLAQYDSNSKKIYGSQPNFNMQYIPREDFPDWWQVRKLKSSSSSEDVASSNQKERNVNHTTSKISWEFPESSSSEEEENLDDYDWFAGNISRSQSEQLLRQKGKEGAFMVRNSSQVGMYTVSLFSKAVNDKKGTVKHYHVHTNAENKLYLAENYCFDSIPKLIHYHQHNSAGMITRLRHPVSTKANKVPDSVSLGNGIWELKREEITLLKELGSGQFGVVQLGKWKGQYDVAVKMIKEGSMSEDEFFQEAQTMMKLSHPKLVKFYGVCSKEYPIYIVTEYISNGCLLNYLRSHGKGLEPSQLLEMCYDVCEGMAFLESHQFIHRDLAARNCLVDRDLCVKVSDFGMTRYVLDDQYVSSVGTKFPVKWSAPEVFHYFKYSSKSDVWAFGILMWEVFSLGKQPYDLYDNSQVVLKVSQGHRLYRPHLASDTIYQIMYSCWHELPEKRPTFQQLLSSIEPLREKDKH
Description: as §1, §2, §3, §4, §5, §6, §7, §8

[8] = molecular target: BTK; details: wild-type BTK; average of literature values; read-out: average published Kd for BTK; cited from earlier work
[9] = ATP-independent in vitro binding, 25 °C, read-out: Kd for wild-type BTK
[10] = category by Kd for wild-type BTK, read-out: potency for BTK
[11] = wild-type BTK, average of N replicates, each in technical duplicate, read-out: average in-house Kd for BTK
[12] = ATP-independent in vitro binding, 25 °C, read-out: Kd for BTK C481S
[13] = N = 1, technical duplicate, read-out: average in-house Kd for BTK C481S
[14] = category by Kd for BTK C481S, read-out: potency for BTK C481S

Chain of JNK1 (MAPK8) (P45983 whole entry): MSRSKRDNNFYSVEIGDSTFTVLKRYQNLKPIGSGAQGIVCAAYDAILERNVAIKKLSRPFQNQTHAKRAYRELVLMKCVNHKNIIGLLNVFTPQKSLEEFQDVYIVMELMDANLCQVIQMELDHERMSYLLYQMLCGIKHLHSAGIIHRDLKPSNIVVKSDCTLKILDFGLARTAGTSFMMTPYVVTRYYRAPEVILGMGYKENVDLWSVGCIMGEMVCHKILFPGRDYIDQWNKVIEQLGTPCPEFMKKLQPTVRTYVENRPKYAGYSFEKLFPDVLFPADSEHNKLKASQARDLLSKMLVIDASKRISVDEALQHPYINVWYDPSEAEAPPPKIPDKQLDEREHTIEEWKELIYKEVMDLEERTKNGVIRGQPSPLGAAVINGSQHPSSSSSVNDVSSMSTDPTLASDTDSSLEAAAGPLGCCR
T3 sequence (Q06187 whole entry C481S): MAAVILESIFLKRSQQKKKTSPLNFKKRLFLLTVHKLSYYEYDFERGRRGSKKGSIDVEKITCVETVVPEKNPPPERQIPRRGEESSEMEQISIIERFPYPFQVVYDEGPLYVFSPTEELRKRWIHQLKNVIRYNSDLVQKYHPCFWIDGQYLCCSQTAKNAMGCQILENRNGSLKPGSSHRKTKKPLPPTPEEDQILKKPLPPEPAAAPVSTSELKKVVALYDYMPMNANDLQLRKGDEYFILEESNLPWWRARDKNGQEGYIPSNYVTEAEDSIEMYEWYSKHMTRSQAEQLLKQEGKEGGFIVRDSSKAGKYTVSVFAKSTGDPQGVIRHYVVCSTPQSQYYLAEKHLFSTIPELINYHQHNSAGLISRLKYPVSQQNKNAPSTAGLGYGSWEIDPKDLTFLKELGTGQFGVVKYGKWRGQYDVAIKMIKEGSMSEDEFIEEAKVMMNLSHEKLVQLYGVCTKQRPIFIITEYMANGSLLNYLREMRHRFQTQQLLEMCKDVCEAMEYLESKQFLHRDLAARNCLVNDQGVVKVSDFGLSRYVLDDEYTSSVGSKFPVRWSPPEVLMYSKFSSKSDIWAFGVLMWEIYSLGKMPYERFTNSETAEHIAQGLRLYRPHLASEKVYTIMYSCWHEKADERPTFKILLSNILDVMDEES
T1 sequence (Q06187 whole entry): as the sequence (Q06187 whole entry C481S) above, with S481C counted along it
T2 sequence (Q06187 whole entry): as the sequence (Q06187 whole entry C481S) above, with S481C counted along it

Row | SMILES | BTK binding POC [1] | Kd [2, 9] [nM] | Kd [2, 10] [nM] | fold difference between in-house and published Kd's ([2]; wild-type BTK) [fold] | Kd [2, 11] [nM] | Kd [3, 12] [nM] | Kd [3, 13] [nM] | Kd [3, 14] [nM] | TEC binding POC [4] | selectivity [5] | JNK1 (MAPK8) POC [6] | BMX binding POC [7] | Kd [8] [nM] | off-target hits ([5]; POC <35) | fold difference between in-house and published Kd ([3]; BTK C481S) [fold] | Kd for BTK C481S ([3]; ATP-independent in vitro binding, 25 °C)
1 | C=CC(=O)N1CCC[C@@H](c2ccc(C(N)=O)c3[nH]ccc23)C1 [Elsubrutinib] | 0.1% of control | 2.9 | 1 to 10 | 1.1 | 2.9 | 460 | 460 | 100 to 1000 | 18% of control | high (high (≤11 off-targets)) | 96% of control | 20% of control | 3.1 | – | – | –
2 | C[C@H]1CN(C2COC2)CCN1c1ccc(Nc2cc(-c3ccnc(N4CCn5c(cc6c5CC(C)(C)C6)C4=O)c3CO)cn(C)c2=O)nc1 [Fenebrutinib] | – | – | – | – | – | – | – | – | 17% of control | – | 100% of control | – | – | – | – | –
3 | O=C(c1ccc(Oc2ccccc2)cc1Cl)c1c[nH]c2ncnc(N[C@@H]3CC[C@@H](CO)OC3)c12 [Nemtabrutinib] | 0.6% of control | – | – | – | – | – | – | – | 7.3% of control | – | 39% of control | 8.5% of control | 46 | 97 | – | –
4 | COc1ccc(F)cc1C(=O)NCc1ccc(-c2nn([C@@H](C)C(F)(F)F)c(N)c2C(N)=O)cc1 [Pirtobrutinib] | 0% of control | 0.81 | < 1 | 1.1 | 0.81 | 0.89 | 0.89 | < 1 | 12% of control | moderate (moderate (12–50 off-targets)) | 96% of control | 51% of control | 0.9 | – | 2.9 | –
5 | C=CC(=O)Nc1cccc(Oc2nc(Nc3ccc(N4CCN(C)CC4)cc3)nc3ccoc23)c1 [Poseltinib] | 0.1% of control | 1.5 | 1 to 10 | – | 1.5 | > 1000 | > 1000 | > 1000 | 8.5% of control | moderate (moderate (12–50 off-targets)) | 32% of control | 12% of control | – | – | – | did not demonstrate any binding at the concentrations tested
6 | C=CC(=O)Nc1cccc(Nc2nc(Nc3ccc(OCCOC)cc3)ncc2F)c1 [Spebrutinib] | 0% of control | – | – | – | – | – | – | – | 8.1% of control | – | 4.8% of control | 10% of control | – | – | – | –
